One series relates to Cholesterol in serum. Nature of the series: Serum cholesterol lowering activity in rats on high-fat feed, single oral dose. In kind it is in vivo, Wister-Imamich strain male rats. Particulars: rat, 75 mg/kg oral, 6 hours after administration. An excerpt:
The cholesterol lowering activity of the ascochlorin derivatives of this invention was observed by the use of Wister-Imamich strain male rats weighing 230 ± 30 g which had been bred with the use of high-fat feed comprising 1000 g of powdery chow CLEA CE-2 (sold by NIHON CLEA KABUSHIKI KAISHA) admixed with 10 g of cholesterol, 95 g of hydrogenated coconut oil, 2 g of cholic acid, 150 g of milk casein and 671 g of sucrose.
The rats were divided into groups of five members each, and orally administered with a different ascochlorin derivative as a suspension in gum arabic aqueous solution in a dose of 75 mg/kg.body weight. The rats were kept from eating food, and 6 hours after the administration, the blood of each rat was sampled from its heart. The total amount of cholesterol in serum was determined by a modified Zurkowski method (Clinical Chemistry, 10, 451, 1964) with the use of a colorimeter for blood analysis (sold by KYOTO DAIICHI KAGAKU).

The subject of a further series is blood platelet. The experiment in a line: Aggregation inhibition activity of blood platelet (ADP-induced, platelet rich plasma of orally dosed rats). Particulars: rat, 20 mg/kg oral, 6 hours; adenosine-5'-diphosphate 10^-5 M in platelet rich plasma. In kind it is in vivo, Wister-Imamich strain male rats. As to the method:
In this Example Wister-Imamich strain male rats weighing 230 ± 30 g which had been bred with the use of a commercial chow, CLEA CE-2 were used.
The rats were divided into groups of five members each, and orally administered with a different ascochlorin derivative as a suspension in 2% gum arabic aqueous solution in a dose of 20 mg/kg.body weight. Six hours after the administration, the blood of each rat was sampled from the heart and after the addition of citric acid, the blood sample was centrifuged at 1,500 r.p.m. for 10 minutes to obtain platelet rich plasma. The anti-aggregation effect when the concentration of adenosine-5'-diphosphatein the platelet rich plasma is ultimately 10^^-5 M is shown in Table II.
As positive controls, ascochlorin, ethyl-α-(p-chlorophenoxy) isobutylate and acetyl salicyclic acid were used. The aggregation inhibition ratio was evaluated in percent by comparing the increase of transmission rate caused by the addition of adenosin-5'-diphosphate to platelet rich plasma of the control group (no medication) with that caused on the groups administered with an ascochlorin derivative which is calculated for 100.

A further series is described as follows: Acute toxicity, mouse. Conditions: in vivo, ip, male. From the text: (§1) Acute toxicity of the ascochlorin derivatives was observed by the use of Wister-Imamichi strain male rats weighing 230 ± 30 g and ddY strain male and female mice (5 weeks old) weighing 20 ±3 g which were divided into groups of 10 members each. Japanese native male rabbits weighing 2 kg ± 300 g which were divided into groups of five members each were also used. The test animals were orally or intraperitoneally administered with a different ascochlorin derivative as a suspension in 5% gum arabic aqueous solution, and the toxicity was compared with that of control in which ascochlorin was used.

The nature of a further series: Acute toxicity, rat. Conditions: in vivo, ip, male.
Description: as §1

A further series deals with Serum Lipid. Nature of the series: Hypolipidemic activity: change in level of serum lipid, 30 days, high-fat feed. In kind it is in vivo, Wister strain rats. Particulars: rat.
In another series the test system is Lipid in liver and aorta. Nature of the series: Hypolipidemic activity: change of lipid level in organs and aorta abdominalis, 30 days, high-fat feed. In kind it is in vivo, Wister strain rats. Particulars: rat, 45.0 mg/kg oral. As to the method: Wister strain rats weighing 150 ± 20 g were divided into groups of 10 members each and bred with high-fat feed, the same as that used in Example 1. The rats were orally administered ascochlorin, 4-O-methylascochlorin or ethyl-α-(p-chlorophenoxy) isobutylate in a predetermined dose every morning for 30 days. Six hours after the last administration, liver and aorta of each rat were taken out and lipid level in the organs of each of the rats were determined. Lipid present in the liver and aorta was extracted with methanol-chloroform (1:1) by allowing it to stand overnight and the extract was assayed as to lipid level.

Setting [1] is: 45.0 mg/kg oral, average ± standard error.

Structures are written as SMILES.

For the compound `CCOc1c(Cl)c(C)c(C=O)c(O)c1C/C=C(C)/C=C/C1(C)C(C)CCC(=O)C1C` (stereo not shown) [4-O-ethylascochlorin], the Cholesterol in serum with Cholesterol in serum came to 82.2 mg/dL. Also, the “Aggregation Inhibition Ratio” value with blood platelet is reported as 55.3%. For the same compound, the LD50 worked out at 5600 mg/kg in the series “Acute toxicity, mouse” and 5100 mg/kg in “Acute toxicity, rat”.

On to `CC(=O)Oc1ccccc1C(=O)O` [acetyl salicylic acid, reference compound], for which, in the series with blood platelet, the “Aggregation Inhibition Ratio” value is 73.1%.

In the series with Cholesterol in serum, `CC(/C=C/C1(C)C(C)CCC(=O)C1C)=C\Cc1c(O)c(C=O)c(C)c(Cl)c1OC(C)C` (stereo not shown) [4-O-isopropylascochlorin] registered a Cholesterol in serum of 85.6 mg/dL. For the same compound, the “Aggregation Inhibition Ratio” value with blood platelet was found to be 57.2%.

Take `CCOC(=O)C(C)(C)Oc1ccc(Cl)cc1` [ethyl-α-(p-chlorophenoxy) isobutylate, reference compound]: in the series on Cholesterol in serum, the Cholesterol in serum was determined as 103.8 mg/dL. The “Aggregation Inhibition Ratio” value in the series with blood platelet was found to be 0%. In the series on Serum Lipid (45.0 mg/kg oral), the “Serum Cholesterol, increasing or reducing ratio based on the control” value is given as “+7.9”; the “Serum Free fatty acid, increasing or reducing ratio based on the control” value is given as -10.1; the “Serum Phospholipid, increasing or reducing ratio based on the control” value is -0.7; the “Serum Triglyceride, increasing or reducing ratio based on the control” value was -9.2. Also, the “Serum β-Lipoprotein, increasing or reducing ratio based on the control” value in the series on Serum Lipid (45.0 mg/kg oral) is given as -3.7. Besides, in the series on Serum Lipid (setting [1]), the “Serum Cholesterol” value amounted to 115.3 ± 5.5 mg/dL, the “Serum Free fatty acid” value is reported as 45.2±1.6 μ eq./dl, the “Serum Phospholipid” value turned out to be 135.9 ± 13.6 mg/dL and the “Serum Triglyceride” value worked out at 72.1 ± 4.4 mg/dL. In addition, the “Serum β-Lipoprotein” value in the series on Serum Lipid (setting [1]) is 738 ± 46 mg/dL. Further, the “lowering of lipids in serum, liver and aorta (such effects)” value in the series on Serum Lipid (oral, groups of Tables IV and V) is on record as “such effects were not observed”. In the series on Lipid in liver and aorta, the “Cholesterol in Liver, increasing or reducing ratio based on the control” value was “+20.6”; the “Cholesterol in Tunica intima of aorta abdominalis, increasing or reducing ratio based on the control” value was -14.7; the “Phospholipid in Liver, increasing or reducing ratio based on the control” value is recorded as “+13.2”; the “Triglyceride in Liver, increasing or reducing ratio based on the control” value is reported as “+10.7”. Further, in the series with Lipid in liver and aorta (average ± standard error), the “Cholesterol in Liver” value worked out at 41.0 ± 4.5 mg/g, the “Phospholipid in Liver” value was 79.5 ± 3.1 mg/g and the “Triglyceride in Liver” value was 24.2 ± 2.2 mg/g.

`CC(/C=C/C1(C)C(C)CCC(=O)C1C)=C\Cc1c(O)c(C=O)c(C)c(Cl)c1OC(C)(C)C` (stereo not shown) [4-O-tert-butylascochlorin] yielded a Cholesterol in serum in the series on Cholesterol in serum of 82.7 mg/dL. Further, the “Aggregation Inhibition Ratio” value with blood platelet amounted to 60.5%.

The compound `CCCOc1c(Cl)c(C)c(C=O)c(O)c1C/C=C(C)/C=C/C1(C)C(C)CCC(=O)C1C` (stereo not shown) [4-O-n-propylascochlorin] gave a Cholesterol in serum in the series on Cholesterol in serum of 84.3 mg/dL. Moreover, in the series on blood platelet, the “Aggregation Inhibition Ratio” value worked out at 56.5%.

On to `CCC(C)Oc1c(Cl)c(C)c(C=O)c(O)c1C/C=C(C)/C=C/C1(C)C(C)CCC(=O)C1C` (stereo not shown) [4-O-sec-butylascochlorin], for which the Cholesterol in serum in the series with Cholesterol in serum was determined as 89.1 mg/dL. Moreover, in the series with blood platelet, the “Aggregation Inhibition Ratio” value worked out at 51.1%.

In the series on Cholesterol in serum, `CC(/C=C/C1(C)C(C)CCC(=O)C1C)=C\Cc1c(O)c(C=O)c(C)c(Cl)c1OCC(C)C` (stereo not shown) [4-O-isobutylascochlorin] returned a Cholesterol in serum of 88.5 mg/dL. Moreover, in the series on blood platelet, the “Aggregation Inhibition Ratio” value is listed as 48.8%.

In the series with Cholesterol in serum, `CCCCOc1c(Cl)c(C)c(C=O)c(O)c1C/C=C(C)/C=C/C1(C)C(C)CCC(=O)C1C` (stereo not shown) [4-O-n-butylascochlorin] gave a Cholesterol in serum of 86.9 mg/dL. The “Aggregation Inhibition Ratio” value in the series on blood platelet was 53.7%.
